Laboratory results taken from patent US12162867B2, “Inhibitors of RNA helicase DHX9 and uses thereof” (ACCENT THERAPEUTICS, INC., priority 2022, dated 2024).
Where two headings read alike, the source gives them in different places.

Key:
Type in all cases: cell-based
LS411N cells = assay: DHX9 cellular proliferation assay (CellTiter-Glo), LS411N (CRC-MSI); settings: Homo sapiens, LS-411N, LS411N, performed at Pharmaron, read-out: LS411N (CRC-MSI-H) Antiproliferative IC50
NCI-H747 cells = assay: DHX9 cellular proliferation assay (CellTiter-Glo), NCI-H747 (CRC-MSS); settings: Homo sapiens, performed at Pharmaron, read-out: H747 (CRC-MSS) Antiproliferative IC50
[1] = test system: circBRIP1 in HCT116 cells; assay: DHX9 circBRIP1 cellular target engagement TaqMan Multiplex assay (qPCR); settings: Homo sapiens, read-out: DHX9 Cellular Target Engagement EC50
[2] = HCT-116, circBRIP1, HCT116 cells, * Taqman assay was used
[3] = HCT-116, 72 h, circBRIP1, HCT116 cells, 72 hours, Taqman assay (marked *)

| IC50 (NCI-H747 cells; NCI-H747, NCI-H747) | EC50 [1, 2] | IC50 (NCI-H747 cells; NCI-H747, NCI-H747, CRC-MSS) | EC50 [1, 3] | SMILES | IC50 (LS411N cells) | IC50 (LS411N cells; CRC-MSI-H) |
| --- | --- | --- | --- | --- | --- | --- |
| 6.46 µM | 46 nM | – | – | Cc1sc(C(=O)Nc2cc(Cl)cc(NS(C)(=O)=O)c2)cc1-c1ncccc1OC(C)c1cc(F)cc(F)c1 (single isomer, unassigned) [Example 633] | 10.4 nM | – |
| 6.36 µM | 47.5 nM | – | – | Cn1cc(C(=O)Nc2cc(Cl)cc(NS(C)(=O)=O)c2)cc1-c1ccc(N2CC(C)(F)C2)cn1 [Example 688] | 122 nM | – |
| > 10 µM | 71.9 nM | – | – | Cc1cc(C(=O)Nc2cc(Cl)cc(NS(C)(=O)=O)c2)cn1-c1ncc(OC(C)(C)C)cn1 [Example 664] | 163 nM | – |
| > 10 µM | 26.1 nM | – | – | Cc1cc(C(=O)Nc2cc(Cl)cc(NS(C)(=O)=O)c2)cn1-c1ccc(N2CC3COCC3C2)cn1 (stereo not drawn) [Example 405] | 116 nM | – |
| 4.33 µM | 37.8 nM | – | – | Cn1cc(C(=O)Nc2cc(Cl)cc(NS(C)(=O)=O)c2)cc1-c1ncc(N2CC(F)(F)C2)cc1F [Example 599] | 149 nM | – |
| 4.14 µM | 108 nM | – | – | Cc1sc(C(=O)Nc2cc(Cl)cc(NS(C)(=O)=O)c2)cc1-c1ncc(N2CC3C(C2)C3(C)C)cc1F (stereo not drawn) [Example 476] | 140 nM | – |
| > 10 µM | 57.3 nM | – | – | Cn1cc(C(=O)Nc2cc(Cl)cc(NS(C)(=O)=O)c2)cc1-c1ncc(N2CCC3(CC2)CC3(F)F)cc1F [Example 518] | 203 nM | – |
| 6.46 µM | 80.4 nM | – | – | CCS(=O)(=O)Nc1cc(Cl)cc(NC(=O)c2cc(-c3ncc(C)cc3F)n(C)c2)c1 [Example 548] | 226 nM | – |
| 3.1 µM | 18.7 nM | – | – | Cc1sc(C(=O)Nc2cc(Cl)cc(NS(C)(=O)=O)c2)cc1-c1ncc(OC(C)(C)CO)cn1 [Example 678] | 391 nM | – |
| > 10 µM | 44.4 nM | – | – | Cn1cc(C(=O)Nc2cc(Cl)cc(NS(C)(=O)=O)c2)cc1-c1ncc(N2CC3(C2)CC(F)(F)C3)cn1 [Example 492] | 209 nM | – |
| – | – | > 10 µM | 69.9 nM | Cc1cc(C#N)cnc1-c1cc(C(=O)Nc2cc(Cl)cc(NS(C)(=O)=O)c2)sc1C [Example 376] | – | 303 nM |
| 2.17 µM | 42.1 nM | – | – | Cc1cc(C(=O)Nc2cc(Cl)cc(NS(C)(=O)=O)c2)cn1-c1ncc(N2CC3(C2)CC(F)(F)C3)cn1 [Example 413] | 138 nM | – |
| 3.5 µM | 127 nM | – | – | Cn1cc(C(=O)Nc2cc(Cl)cc(NS(C)(=O)=O)c2)cc1-c1cccc(N2CC(F)(F)C2)n1 [Example 551] | 225 nM | – |
| 2.06 µM | 12.4 nM | – | – | Cc1sc(C(=O)Nc2cc(Cl)cc(NS(C)(=O)=O)c2)cc1-c1ccc(N2CCC(F)(F)C2)cn1 [Example 485] | 58.3 nM | – |
| 4.63 µM | 47.7 nM | – | – | CC(C)(C)Oc1cnc(-c2cc(C(=O)Nc3cc(Cl)cc(NS(C)(=O)=O)c3)sc2CO)nc1 [Example 686] | 132 nM | – |
| > 10 µM | 33.7 nM | – | – | Cc1sc(C(=O)Nc2cc(Cl)cc(NS(C)(=O)=O)c2)cc1-c1ccc(N2CCN(C(=O)C3CC3)CC2)cn1 [Example 590, N-(3-chloro-5-methanesulfonamidophenyl)-4-[5-(4-cyclopropanecarbonylpiperazin-1-yl)pyridin-2-yl]-5-methylthiophene-2-carboxamide] | 533 nM | – |
| > 10 µM | 21.9 nM | – | – | CC(=O)N1CCC(c2cnc(-c3cc(C(=O)Nc4cc(Cl)cc(NS(C)(=O)=O)c4)sc3C)nc2)CC1 [Example 699] | 517 nM | – |
| – | – | 7.07 µM | 52.1 nM | CCS(=O)(=O)Nc1cc(Cl)cc(NC(=O)c2cc(-c3ncc(OC)cc3F)c(C)s2)c1 [Example 360] | – | 235 nM |

| IC50 (NCI-H747 cells; NCI-H747, NCI-H747) | EC50 [1, 2] | IC50 (NCI-H747 cells; NCI-H747, NCI-H747, CRC-MSS) | EC50 [1, 3] | SMILES | IC50 (LS411N cells) | IC50 (LS411N cells; CRC-MSI-H) |
| --- | --- | --- | --- | --- | --- | --- |
| > 10 µM | 71.6 nM | – | – | Cn1cc(C(=O)Nc2cc(Cl)cc(NS(C)(=O)=O)c2)cc1-c1ncc(OC(F)F)cn1 [Example 553] | 211 nM | – |
| > 10 µM | 29.3 nM | – | – | Cn1cc(C(=O)Nc2cc(Cl)cc(NS(C)(=O)=O)c2)cc1-c1ncc(N2CCC(F)(F)C2)cn1 [Example 526] | 133 nM | – |
| > 10 µM | 64.8 nM | – | – | Cn1cc(C(=O)Nc2cc(Cl)cc(NS(C)(=O)=O)c2)cc1-c1ncc(N2CC(F)(F)C2)cn1 [Example 597] | 164 nM | – |
| > 10 µM | 55.8 nM | – | – | Cc1sc(C(=O)Nc2cc(Cl)cc(NS(C)(=O)=O)c2)cc1-c1ncc(N2CCC3(C2)CC3(F)F)cc1F (stereo not drawn) [Example 480] | 150 nM | – |
| 4.8 µM | 85.3 nM | – | – | CC(C)Oc1cnc(-c2csc(C(=O)Nc3cc(Cl)cc(NS(C)(=O)=O)c3)c2)nc1 [Example 457] | 76.1 nM | – |
| 4.2 µM | 30.1 nM | – | – | Cc1sc(C(=O)Nc2cc(Cl)cc(NS(C)(=O)=O)c2)cc1-c1ncc(N2CC(F)(F)C2)cc1F [Example 532, N-(3-chloro-5-methanesulfonamidophenyl)-4-[5-(3,3-difluoroazetidin-1-yl)-3-fluoropyridin-2-yl]-5-methylthiophene-2-carboxamide] | 100 nM | – |
| 2.6 µM | 31.8 nM | – | – | Cc1sc(C(=O)Nc2cc(Cl)cc(NS(C)(=O)=O)c2)cc1-c1ncc(N2CCC(F)(F)C2)cc1F [Example 484] | 66.2 nM | – |
| > 10 µM | 77.2 nM | – | – | CS(=O)(=O)Nc1cc(Cl)cc(NC(=O)c2cc(-c3ncc(F)cc3OCc3cncnc3)n(CC(F)(F)F)c2)c1 [Example 735] | 306 nM | – |
| 6.46 µM | 63.4 nM | – | – | CS(=O)(=O)Nc1cc(Cl)cc(NC(=O)c2cc(-c3ncc(N4CC(C(F)(F)F)C4)cn3)n(CC(F)F)c2)c1 [Example 508] | 108 nM | – |
| – | – | 4.71 µM | 56.6 nM | CC(C)(C)Oc1cnc(-c2csc(C(=O)Nc3cc(Cl)cc(NS(C)(=O)=O)c3)c2)nc1 [Example 379] | – | 83 nM |
| > 10 µM | 65.1 nM | – | – | Cc1sc(C(=O)Nc2cc(Cl)cc(NS(C)(=O)=O)c2)cc1-c1ncc(C#N)cn1 [Example 585] | 208 nM | – |
| – | – | > 10 µM | 28.6 nM | COc1cc(F)cnc1-c1cc(C(=O)Nc2cc(Cl)cc(NS(C)(=O)=O)c2)sc1C [Example 351] | – | 82 nM |
| > 10 µM | 19.4 nM | – | – | COc1cc(N2CC(F)(F)C2)cnc1-n1cc(C(=O)Nc2cc(Cl)cc(NS(C)(=O)=O)c2)cc1C [Example 421] | 114 nM | – |
| 7.7 µM | 36.7 nM | – | – | Cc1sc(C(=O)Nc2cc(Cl)cc(NS(C)(=O)=O)c2)cc1-c1ncc(F)cc1C#CC(C)(C)O [Example 696] | 45.1 nM | – |
| > 10 µM | 109 nM | – | – | Cn1cc(C(=O)Nc2cc(Cl)cc(NS(C)(=O)=O)c2)cc1-c1ncc(F)cc1C#N [Example 546] | 1090 nM | – |
| > 10 µM | 87.6 nM | – | – | Cc1sc(C(=O)Nc2cc(Cl)cc(NS(C)(=O)=O)c2)cc1-c1ncc(N2CC(F)(F)C2)cc1OC(C)C [Example 534] | 55.4 nM | – |
| 1.71 µM | 61 nM | – | – | Cn1cc(C(=O)Nc2cc(Cl)cc(NS(C)(=O)=O)c2)cc1-c1ncc(N2CCCC(F)(F)C2)cc1F [Example 483] | 101 nM | – |
